One cell line from the supplement of paper PMC10307832 can be followed below.

What all share (assay): relative viability (nuclei count vs DMSO), 5 days (fraction); higher = more cells survive
Compound in the assay “AZ628 + Alpelisib”: CC1=C(C=C(C=C1)NC(=O)C2=CC(=CC=C2)C(C)(C)C#N)NC3=CC4=C(C=C3)N=CN(C4=O)C [AZ628] + Cc1nc(NC(=O)N2CCC[C@H]2C(N)=O)sc1-c1ccnc(C(C)(C)C(F)(F)F)c1 [Alpelisib] (partner 2 µM)
An outline of the steps: (§1)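 Relative viability was taken as the ratio of nuclei in treated wells to nuclei in vehicle wells. Lung cancer cell lines in 1536-well plates received compounds by pin tool one day after seeding, either one drug alone or a fixed anchor-drug dose plus five library-drug doses (not always all listed) in √10 steps. Nuclei were counted on 4× images after 5 days of treatment, and values are medians of duplicate plates.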

Compound in the assay “AZ628 + Trametinib”: CC1=C(C=C(C=C1)NC(=O)C2=CC(=CC=C2)C(C)(C)C#N)NC3=CC4=C(C=C3)N=CN(C4=O)C [AZ628] + CC(=O)Nc1cccc(-n2c(=O)n(C3CC3)c(=O)c3c(Nc4ccc(I)cc4F)n(C)c(=O)c(C)c32)c1 [Trametinib] (partner 0.02 µM)
An outline of the steps:
as §1

Compound in the assay “QS11 + Tozasertib”: C1CC2=C(C1)C=C(C=C2)OC3=NC(=C4C(=N3)N(C=N4)CC5=CC=C(C=C5)C6=CC=CC=C6)N[C@@H](CC7=CC=CC=C7)CO [QS11] + Cc1cc(Nc2cc(N3CCN(C)CC3)nc(Sc3ccc(NC(=O)C4CC4)cc3)n2)n[nH]1 [Tozasertib] (partner 0.1 µM)
A digest of the protocol:
as §1

Compound in the assay “QS11 + Linsitinib”: C1CC2=C(C1)C=C(C=C2)OC3=NC(=C4C(=N3)N(C=N4)CC5=CC=C(C=C5)C6=CC=CC=C6)N[C@@H](CC7=CC=CC=C7)CO [QS11] + C[C@]1(O)C[C@@H](c2nc(-c3ccc4ccc(-c5ccccc5)nc4c3)c3c(N)nccn32)C1 [Linsitinib] (partner 1 µM)
An outline of the steps: as §1

LCLC-97TM1: the relative viability in the assay with AZ628 + Alpelisib (first compound 0.08 µM) was 0.279; in the assay with AZ628 + Alpelisib (first compound 0.253 µM) it was 0.205; with AZ628 + Alpelisib (first compound 0.8 µM), 0.195; with AZ628 + Alpelisib (first compound 2.53 µM), 0.232; with AZ628 + Alpelisib (first compound 8 µM), 0.118; with AZ628 + Trametinib (first compound 0.08 µM), 0.126. Moreover, the relative viability was found to be 0.118 with AZ628 + Trametinib (first compound 0.253 µM); 0.114 with AZ628 + Trametinib (first compound 0.8 µM); 0.0994 in the assay with AZ628 + Trametinib (first compound 2.53 µM); 0.116 with AZ628 + Trametinib (first compound 8 µM); 0.2 with QS11 + Tozasertib (first compound 0.08 µM); 0.242 with QS11 + Tozasertib (first compound 0.253 µM). Further, the relative viability amounted to 0.199 in the assay with QS11 + Tozasertib (first compound 2.53 µM); 0.146 in the assay with QS11 + Tozasertib (first compound 8 µM); 0.15 in the assay with QS11 + Linsitinib (first compound 0.08 µM); 0.17 with QS11 + Linsitinib (first compound 0.253 µM); 0.233 with QS11 + Linsitinib (first compound 0.8 µM); 0.237 with QS11 + Linsitinib (first compound 2.53 µM). For the same cell line, in the assay with QS11 + Linsitinib (first compound 8 µM), the relative viability came to 0.293.
